# Results taken from patent US20110230431A1, “FOSFOMYCIN/TOBRAMYCIN COMBINATIONS FOR THE TREATMENT AND PREVENTION OF OPHTHALMIC, OTOLOGICAL AND DERMATOLOGICAL INFECTIONS” (Gilead Sciences, Inc., priority 2008, published 2011).
# Where two headings read alike, the source gives them in different places.
# Experiments:
# [1] = test system: Cell Wall Synthesis in P. aeruginosa ATCC 27853; assay: Macromolecular biosynthesis: 3H-N-acetyl-D-glucosamine incorporation; type: cell-based, Pseudomonas aeruginosa; details: Pseudomonas aeruginosa, ATCC27853, at 2 h relative to no-drug control, single experiment
# Method: (§1) Picataway, N.J.) and N-acetyl-D-Glucosamine (^3H-NAG) (GE Healthcare Bio-Sciences), respectively (Baum, E Z, Antimicrob Agents Chernother 2001; 45 (11): 3182-3188). A single colony of P. aeruginosa ATCC 27853 was inoculated into 10 mL of CAMHB and incubated for 16 h, at 37° C., 200 rpm in a shaking water bath. […] At various time points, 100 μl aliquots (triplicate) of culture were removed and added to 100 μl of 20% TCA (VWR) in 96-well flat bottom trays (VWR). Plates were incubated on crushed ice for 60 min to precipitate the incorporated ^3H-precursors. Samples were harvested onto glass fibre filters (GFC) (PerkinElmer; Waltham, Mass.). Filters were washed two times with 35 mL of normal saline to remove unincorporated isotope followed by one wash with 35 mL of 90% ETOH (VWR). Filters were dried under a lamp for 1 h to reduce remaining moisture and then sealed in bags containing 5 mL of scintillation cocktail (Betaplate Scint; PerkinElmer). Counts per minute (CPM) were determined using a Wallac MicroBeta Trilux (PerkinElmer). Mean CPM±standard deviation (SD) were determined for each treatment group. Background counts consisting of a media-only sample were subtracted from the no-drug and antibiotic treatment groups. The percent inhibition of incorporation was determined relative to the no-drug controls. The activities of the three drugs were compared by calculating the time to 50% inhibition (T1/2), and statistical differences at each time point were evaluated by the Analysis of Variance (ANOVA; GraphPad Prisma software package 3.03; GraphPad Software, Inc., San Diego, Calif.). Each curve represents 4 replicate experiments, each time point performed in triplicate.
# [2] = test system: E. coli; assay: MIC by agar plate dilution method (CLSI); type: cell-based, Escherichia coli; details: Escherichia coli, read-out: MIC
# Excerpt: (§2) P. aeruginosa strains isolated from patients with cystic fibrosis (CF) were obtained from Children's Hospital and Regional Medical Center (Seattle, Wash.). Clinical isolates of Escherichia coli and Staphylococcus aureus were obtained from The Jones Group Laboratories (JMI; North Liberty, Iowa) and The Clinical Microbiology Institute (CMI; Wilsonville, Oreg.). P. aeruginosa 27853, S. aureus 29213, and E. coli 25922 served as quality control strains^1 and were obtained from The America Type Culture Collection (ATCC; Manassas, Va.). P. aeruginosa ATCC 27853, a fosfomycin and tobramycin susceptible strain, was used in macromolecular biosynthesis and tobramycin uptake experiments. Stock cultures were maintained at −80° C. in Cation-Adjusted Mueller-Hinton Broth (CAMHB) (Remel; Lenexa, Kans.) supplemented with 20% glycerol (VWR: West Chester, Pa.). Cultures for routine use were grown on tryptic soy agar plates+5% sheeps blood (PML Microbiologicals Inc.; Wilsonville, Oreg.) and stored at 4° C.
# (§3) MICs were determined by the agar plate dilution method according to CLSI guidelines (National Committee for Clinical Laboratory Standards. M7-A6. 6th ed. Villanova (Pa.): NCCLS, 2003; M100-S14. Villanova (Pa.): NCCLS, 2004).
# [3] = test system: P. aeruginosa; type: cell-based, Pseudomonas aeruginosa
# Method: (§4) Development of resistance after a single exposure to antibiotic was determined for both clinical and reference isolates of P. aeruginosa, S. aureus, and E. coli. Late Log-phase cultures were centrifuged at 1,400×g at room temperature for 20 min and the cell pellets resuspended in CAMHB. […] The culture plates were incubated at 37° C. for 48 h and the number of colonies on each plate was enumerated manually. The spontaneous mutation frequency (SMF) resulting in antibiotic resistance was calculated by dividing the number of bacteria growing at the defined antibiotic concentration by the number of bacteria in the inoculum (Martinex, J L, Antimicrob Agents Chemother 2000; 44 (1):1771-1777).
# [4] = test system: P. aeruginosa; assay: MIC by agar plate dilution method (CLSI); type: cell-based, Pseudomonas aeruginosa; details: Pseudomonas aeruginosa, read-out: MIC
# Excerpt: as §2, §3
# [5] = test system: E. coli; type: cell-based, Escherichia coli
# Method: as §4
# [6] = test system: Protein Synthesis in P. aeruginosa ATCC 27853; assay: Macromolecular biosynthesis: 3H-amino acid incorporation; type: cell-based, Pseudomonas aeruginosa
# Method: as §1
# [7] = test system: P. aeruginosa ATCC 27853; assay: Time-kill experiments in CAMHB with 2% mucin; type: cell-based, Pseudomonas aeruginosa
# Method: Time-kill experiments were performed according to a modified CLSI method (National Committee for Clinical Laboratory Standards. M-26A. Villanova (Pa.): NCCLS, 1999). […] Bacterial cultures and antibiotic(s) were incubated at 37° C. in a shaking water bath (200 rpm) and killing activity assessed at 0, 1, 2, 4, 6 and 24 h. Antibiotics that reduced the original inoculum by ≧3-Log10 were considered bactericidal. Antibiotics that reduced the original inoculum by ≦2-Log10 were considered bacteriostatic.
compound,measurement,setting,value
"C[C@@H]1O[C@@H]1P(=O)(O)O [Fosfomycin, fosfomycin disodium]",inhibition at 3.2 µg/mL,[1]; 3.2 μg/mL,8%
same,inhibition at 6.4 µg/mL,[1]; 6.4 μg/mL,14%
same,inhibition at 12.8 µg/mL,[1]; 12.8 μg/mL,3%
same,MIC,"[2]; ATCC25922, E. coli ATCC 25922",2 µg/mL
same,MIC,[2]; E. coli C032,1 µg/mL
same,MIC,[2]; E. coli C036,2 µg/mL
same,MIC,[2]; E. coli C037,1 µg/mL
same,MIC,[2]; E. coli C294,0.5 µg/mL
same,Frequency of Resistance 4× MIC,"[3]; P. aeruginosa ATCC 27853, 4× MIC",7.2 × 10^−4
same,Frequency of Resistance 8× MIC,"[3]; P. aeruginosa ATCC 27853, 8× MIC",1.1 × 10^−5
same,Frequency of Resistance 16× MIC,"[3]; P. aeruginosa ATCC 27853, 16× MIC",7.2 × 10^−5
same,Frequency of Resistance 4× MIC,"[3]; P. aeruginosa C002, 4× MIC",6.5 × 10^−3
same,Frequency of Resistance 8× MIC,"[3]; P. aeruginosa C002, 8× MIC",1.1 × 10^−4
same,Frequency of Resistance 16× MIC,"[3]; P. aeruginosa C002, 16× MIC",4.6 × 10^−4
same,Frequency of Resistance 4× MIC,"[3]; P. aeruginosa C003, 4× MIC",1.1 × 10^−6
same,Frequency of Resistance 8× MIC,"[3]; P. aeruginosa C003, 8× MIC",9.0 × 10^−5
same,Frequency of Resistance 16× MIC,"[3]; P. aeruginosa C003, 16× MIC",1.3 × 10^−4
same,Frequency of Resistance 4× MIC,"[3]; P. aeruginosa C013, 4× MIC",9.2 × 10^−3
same,Frequency of Resistance 8× MIC,"[3]; P. aeruginosa C013, 8× MIC",1.3 × 10^−5
same,Frequency of Resistance 16× MIC,"[3]; P. aeruginosa C013, 16× MIC",1.3 × 10^−7
same,Frequency of Resistance 4× MIC,"[3]; P. aeruginosa C014, 4× MIC",1.4 × 10^−4
same,Frequency of Resistance 8× MIC,"[3]; P. aeruginosa C014, 8× MIC",1.3 × 10^−6
same,Frequency of Resistance 16× MIC,"[3]; P. aeruginosa C014, 16× MIC",1.8 × 10^−6
same,MIC,"[4]; ATCC27853, P. aeruginosa ATCC 27853",4 µg/mL
same,MIC,[4]; P. aeruginosa C002,4 µg/mL
same,MIC,[4]; P. aeruginosa C003,16 µg/mL
same,MIC,[4]; P. aeruginosa C013,32 µg/mL
same,MIC,[4]; P. aeruginosa C014,8 µg/mL
same,Frequency of Resistance 4× MIC,"[5]; E. coli ATCC 25922, 4× MIC",1.9 × 10^−5
same,Frequency of Resistance 8× MIC,"[5]; E. coli ATCC 25922, 8× MIC",6.0 × 10^−6
same,Frequency of Resistance 16× MIC,"[5]; E. coli ATCC 25922, 16× MIC",2.5 × 10^−5
same,Frequency of Resistance 4× MIC,"[5]; E. coli C032, 4× MIC",4.4 × 10^−5
same,Frequency of Resistance 8× MIC,"[5]; E. coli C032, 8× MIC",7.8 × 10^−5
same,Frequency of Resistance 16× MIC,"[5]; E. coli C032, 16× MIC",2.1 × 10^−6
same,Frequency of Resistance 4× MIC,"[5]; E. coli C036, 4× MIC",1.1 × 10^−6
same,Frequency of Resistance 8× MIC,"[5]; E. coli C036, 8× MIC",2.3 × 10^−6
same,Frequency of Resistance 16× MIC,"[5]; E. coli C036, 16× MIC",3.4 × 10^−6
same,Frequency of Resistance 4× MIC,"[5]; E. coli C037, 4× MIC",1.9 × 10^−6
same,Frequency of Resistance 8× MIC,"[5]; E. coli C037, 8× MIC",2.9 × 10^−6
same,Frequency of Resistance 16× MIC,"[5]; E. coli C037, 16× MIC",8.6 × 10^−6
same,Frequency of Resistance 4× MIC,"[5]; E. coli C294, 4× MIC",7.9 × 10^−5
same,Frequency of Resistance 8× MIC,"[5]; E. coli C294, 8× MIC",5.4 × 10^−5
same,Frequency of Resistance 16× MIC,"[5]; E. coli C294, 16× MIC",6.3 × 10^−5
same,time to 50% inhibition (T1/2) of protein synthesis,[6]; 6.4 μg/mL (FIG. 5),2.42 h
same,inhibition at 3.2 µg/mL,"[6]; Pseudomonas aeruginosa, ATCC27853, 3.2 μg/mL, at 2 h relative to no-drug control, single experiment",0%
same,inhibition at 6.4 µg/mL,"[6]; Pseudomonas aeruginosa, ATCC27853, 6.4 μg/mL, at 2 h relative to no-drug control, single experiment",21%
same,inhibition at 12.8 µg/mL,"[6]; Pseudomonas aeruginosa, ATCC27853, 12.8 μg/mL, at 2 h relative to no-drug control, single experiment",9%
same,killing activity at 24 h,"[7]; 24 h, FT4:1 16 μg/mL, fosfomycin 12.8 μg/mL, tobramycin 3.2 μg/mL, mucin, FIG. 4",re-growth of the bacterial culture
same,killing activity,"[7]; FT4:1 at 4×MIC (16 μg/mL), component weights fosfomycin 12.8 μg/mL, tobramycin 3.2 μg/mL, mucin, FIG. 4",bacteriostatic killing
same,"killing activity (bactericidal ≧3-Log10, bacteriostatic ≦2-Log10)","[7]; multiples of the MIC, FIG. 1-3",bacteriostatic
